Assay results from patent US20240009219A1, “COMPOSITIONS AND METHODS USING A COMBINATION OF OLEUROPEIN AND NICOTINAMIDE RIBOSIDE FOR CELLULAR ENERGY” (SOCIETE DES PRODUITS NESTLE S.A., priority 2020, published 2024).

How the values were obtained:
[1] = system: myotubes differentiated from C2C12 cells; assay: NAD+ measurement (NAD/NADH Quantification Kit); assay type: cell-based; conditions: NAD+-depleted myotubes; NR 0.5 mM, Oea 10 μM; n=6
Experimental: C2C12 cells were purchased from ATCC. C2C12 cells were seeded in 96-well plates at a density of 15 000 cells per well in DMEM high glucose (Gibco)+10% fetal calf serum. Myotubes were differentiated from C2C12 cells by growing the cells in DMEM containing 2% horse serum, for 6 days.
To obtain a condition of restrictions of NAD bioavailability, C2C12-derived myotubes were treated with 1 μM of FK866, an NAMPT inhibitor, for 3 days before experiment. Luminescence was measured at the Cytation 3 cell imaging reader (Biotek). Calibration of the luminescence data into Calcium concentration was carried out using an algorithm as described previously (Alvarez & Montero, 2002). Custom module analysis based on Excel (Microsoft) and GraphPad Prism 7.02 (GraphPad) software was used for quantification.
NAD^+ measurements were carried out using myotubes treated as previous described and quantifying with NAD/NADH Quantification Kit (Sigma-Aldrich).

[2] = system: myotubes differentiated from C2C12 cells; assay: Mitochondrial calcium measurement with mitochondrially targeted aequorin, caffeine stimulation; assay type: cell-based; conditions: NAD+-containing myotubes; Oea 10 μM, NR 0.5 mM; n=6
Experimental: C2C12 cells were purchased from ATCC. C2C12 cells were seeded in 96-well plates at a density of 15 000 cells per well in DMEM high glucose (Gibco)+10% fetal calf serum. Myotubes were differentiated from C2C12 cells by growing the cells in DMEM containing 2% horse serum, for 6 days. Mitochondrial calcium measurements were carried out using myotubes infected with the adenovirus (from Sirion biotech) expressing the mitochondrially targeted calcium sensor mitochondrial mutated aequorin (Montero et al., 2004). For aequorin reconstitution, 48 hours after infection, cells or myotubes were incubated for 2 h at room temperature (22±° C.) in standard medium (145 mM NaCl, 5 mM KCl, 1 mM MgCl2, 1 mM CaCl2, 10 mM glucose and 10 mM Hepes, pH 7.4) with 1 μM wild-type coelenterazine. Myotubes were stimulated with 5 mM of caffeine and the total calcium transition during stimulation was calculated as the area under the curve. […] Luminescence was measured at the Cytation 3 cell imaging reader (Biotek). Calibration of the luminescence data into Calcium concentration was carried out using an algorithm as described previously (Alvarez & Montero, 2002). Custom module analysis based on Excel (Microsoft) and GraphPad Prism 7.02 (GraphPad) software was used for quantification.

C. elegans = C. elegans lifespan test; assay type: in vivo, Caenorhabditis elegans; conditions: treated from day 1 of adulthood; NR 100 μM, Oae 200 μM, wild type N2 worms
Experimental: C. elegans lifespan tests were performed using about 100 animals per condition and scored manually every other day. The experimental measurements of the effect of nicotinamide riboside, oleuropein aglycone, and the combination NR+Oae treatment were started at day 1 of wild type N2 worm adulthood, in a regimen of chronic exposure till experiments termination.

Row | SMILES | NAD production [1] | integrated mitochondrial calcium rise, evoked by 5 mM caffeine [2] | mean lifespan extension (C. elegans) [%]
1 | C/C=C1/C(O)OC=C(C(=O)OC)[C@H]1CC(=O)OCCc1ccc(O)c(O)c1 (mixture of isomers) [Oleuropein aglycone, oleuropein aglycone] | does not boosts NAD production | activates mitochondria via mitochondrial Ca^2+ rise | 10
2 | NC(=O)c1ccc[n+]([C@@H]2O[C@H](CO)[C@@H](O)[C@H]2O)c1 [Nicotinamide riboside, nicotinamide riboside] |  | does not boost mitochondrial Ca^2+ rise | 5
